US6709647B2, “Antimicrobial deodorant compositions” (Unilever Home & Personal Care USA, a division of Conopco, …, priority 2001, dated 2004)

Columns and labels:
[1] = system: Staphylococcus epidermidis; experiment: Cell suspension kill test in MES buffer, quench, plate count; format: cell-based; conditions: 50 mM MES pH 6.5; for Reduction in bacterial no. / Bacterial no. (concentration of bacteria remaining after 60 minutes): S. epidermidis; for Reduction in bacterial no.: amounts in mM; for Bacterial no. After 60 mins. / Bacterial no. Immediate: S. epidermidis suspension, amounts in weight %; for Bacterial no. Immediate: sample removed immediately; for Bacterial no. (concentration of bacteria remaining after 60 minutes): Table 6, percarbonate
Method: A cell suspension of Staphylococcus epidermidis in 50 mM MES buffer (2-[N-morpholino]ethanesulfonic acid, Sigma M5287) was prepared to an OD600 nm of 0.022 and equal portions were treated with the components indicated in Table 3, to give the weight percentages also indicated. Samples were removed immediately and after 60 minutes; said samples being decimally diluted in a quench solution (vide infra) and then plated onto a suitable culture medium. The plates were incubated at 37° C. for 48 hours, then read and the bacterial numbers calculated.
The quench solution used was a solution of:
in 37.5 mM phosphate buffer, at pH 7.9, containing 0.05% v/v Triton X-100 (iso-octyl phenoxy polyoxyethanol).
In this Table, the amounts indicated are milliMolar concentrations and the antimicrobial effect is expressed in terms of the reduction in bacterial numbers achieved.
In these Tables, the amounts indicated are milliMolar concentrations and the antimicrobial effect is expressed in terms of the concentration of bacteria remaining after 60 minutes.

Corynebacteria = experiment: Cell suspension kill test in MES buffer, quench, plate count (Corynebacteria); format: cell-based; conditions: amounts in mM; for Bacterial no. After 60 mins.: 50 mM MES pH 6.5, after 60 minutes; for Bacterial no. Immediate: 50 mM MES pH 6.5, sample removed immediately
Method: A cell suspension of Staphylococcus epidermidis in 50 mM MES buffer (2-[N-morpholino]ethanesulfonic acid, Sigma M5287) was prepared to an OD600 nm of 0.022 and equal portions were treated with the components indicated in Table 3, to give the weight percentages also indicated. […] The plates were incubated at 37° C. for 48 hours, then read and the bacterial numbers calculated. The quench solution used was a solution of: in 37.5 mM phosphate buffer, at pH 7.9, containing 0.05% v/v Triton X-100 (iso-octyl phenoxy polyoxyethanol). An analogous experiment to that performed with Example 3, with the modification of using Corynebacteria rather than S. epidermidis, was performed with the components indicated in Table 5. In this Table, the amounts indicated are milliMolar concentrations and the effect is expressed as in Table 3.

| Compound | Reduction in bacterial no. [1] [Log10cfu/ml] | Bacterial no. After 60 mins. (Corynebacteria) [Log10cfu/ml] | Bacterial no. Immediate (Corynebacteria) [Log10cfu/ml] | further results |
| --- | --- | --- | --- | --- |
| O.O=BO[O-].[Na+] [Example G, Perborate.H2O] | <2.59 | – | – | – |
| O=C(CCCCCN1C(=O)c2ccccc2C1=O)OO [Example E, phthalimidoperoxy hexanoic acid] | – | – | – | Bacterial no. After 60 mins. [1]: 6.50 Log10cfu/ml; Bacterial no. Immediate [1]: 6.47 Log10cfu/ml |
| Perborate.4 H2O [Example H] | <2.59 | – | – | – |
| O=C([O-])[O-].O=C([O-])[O-].OO.OO.OO.[Na+].[Na+].[Na+].[Na+] [O, Percarbonate] | – | – | – | Bacterial no. (concentration of bacteria remaining after 60 minutes) [1]: 6.39 Log10cfu/ml |
| O=C([O-])[O-].O=C([O-])[O-].OO.OO.OO.[Na+].[Na+].[Na+].[Na+] [N, Percarbonate] | – | – | – | Bacterial no. (concentration of bacteria remaining after 60 minutes) [1]: 6.13 Log10cfu/ml |
| OO [K, Hydrogen peroxide] | – | 4.6 | 6.1 | – |
| O=C(O)c1ccccn1 [J, Picolinic acid] | – | 6.0 | 6.1 | – |
| O=C(O)CN(CCN(CC(=O)O)CC(=O)O)CCN(CC(=O)O)CC(=O)O [L, Diethylenetriaminapentaacetic acid] | – | 5.9 | 6.0 | – |
| O=C(O)c1ccccn1 [Example F, Picolinic acid] | <2.59 | – | – | – |
| O=C(O)c1ccccn1 [D, Picolinic acid] | – | – | – | Bacterial no. After 60 mins. [1]: 6.50 Log10cfu/ml; Bacterial no. Immediate [1]: 6.60 Log10cfu/ml |
